Holding throughout (type): in vivo
Assay [1] concerns Alopecurus myosuroides (ALOMY). Put plainly: Pre-emergence herbicidal glasshouse test on Alopecurus myosuroides. The note with it: for PRE Application ALOMY herbicidal damage (five point scale): pre-emergence, 1000 g/h, evaluated after 13 days. How it is done: (§1) Seeds of a variety of test species are sown in standard soil in pots (Alopecurus myosuroides (ALOMY), Setaria faberi (SETFA), Echinochloa crus-galli (ECHCG), Solanum nigrum (SOLNI), Amaranthus retoflexus (AMARE), Ipomoea hederacea (IPOHE)). After cultivation for one day (pre-emergence) or after 8 days cultivation (post-emergence) under controlled conditions in a glasshouse (at 24/16° C., day/night; 14 hours light; 65% humidity), the plants are sprayed with an aqueous spray solution derived from the formulation of the technical active ingredient in acetone/water (50:50) solution containing 0.5% Tween 20 (polyoxyethelyene sorbitan monolaurate, CAS RN 9005-64-5). Compounds are applied at 1000 g/h. The test plants are then grown in a glasshouse under controlled conditions in a glasshouse (at 24/16° C., day/night; 14 hours light; 65% humidity) and watered twice daily. After 13 days for pre and post-emergence, the test is evaluated for the percentage herbicidal damage caused to the plant. The biological activities are shown in the following table on a five point scale (5=80-100% damage; 4=60-79% damage; 3=40-59% damage; 2=20-39% damage; 1=0-19% damage).

In assay [2] the test system is Setaria faberi (SETFA). Nature of the assay: Pre-emergence herbicidal glasshouse test on Setaria faberi. The note with it: for PRE Application SETFA herbicidal damage (five point scale): pre-emergence, 1000 g/h, evaluated after 13 days. How it is done: as §1
Assay [3] concerns Echinochloa crus-galli (ECHCG). Put plainly: Pre-emergence herbicidal glasshouse test on Echinochloa crus-galli. The note with it: pre-emergence; 1000 g/h; evaluated after 13 days. How it is done: as §1
Assay [4] has as its system Ipomoea hederacea (IPOHE). Nature of the assay: Pre-emergence herbicidal glasshouse test on Ipomoea hederacea. The settings on record: pre-emergence; 1000 g/h; evaluated after 13 days. On the procedure:
as §1

Assay [5] deals with Alopecurus myosuroides (ALOMY). Put plainly: Post-emergence herbicidal glasshouse test on Alopecurus myosuroides. The settings on record: for POST Application ALOMY herbicidal damage (five point scale): post-emergence, 1000 g/h, evaluated after 13 days. On the procedure:
as §1

Assay [6] concerns Setaria faberi (SETFA). Put plainly: Post-emergence herbicidal glasshouse test on Setaria faberi. The settings on record: for POST Application SETFA herbicidal damage (five point scale): post-emergence, 1000 g/h, evaluated after 13 days. On the procedure:
as §1

The subject of assay [7] is Echinochloa crus-galli (ECHCG). Put plainly: Post-emergence herbicidal glasshouse test on Echinochloa crus-galli. The settings on record: for POST Application ECHCG herbicidal damage (five point scale): post-emergence, 1000 g/h, evaluated after 13 days. On the procedure: as §1
Assay [8] concerns Solanum nigrum (SOLNI). Put plainly: Post-emergence herbicidal glasshouse test on Solanum nigrum. The settings on record: for POST Application SOLNI herbicidal damage (five point scale): post-emergence, 1000 g/h, evaluated after 13 days. On the procedure:
as §1

Assay [9] deals with Amaranthus retoflexus (AMARE). Put plainly: Post-emergence herbicidal glasshouse test on Amaranthus retoflexus. The note with it: for POST Application AMARE herbicidal damage (five point scale): post-emergence, 1000 g/h, evaluated after 13 days. On the procedure: as §1
For assay [10], the system named is Ipomoea hederacea (IPOHE). Nature of the assay: Post-emergence herbicidal glasshouse test on Ipomoea hederacea. The settings on record: for POST Application IPOHE herbicidal damage (five point scale): post-emergence, 1000 g/h, evaluated after 13 days. On the procedure:
as §1

Assay [11] has as its system Solanum nigrum (SOLNI). Nature of the assay: Pre-emergence herbicidal glasshouse test on Solanum nigrum. The settings on record: for PRE Application SOLNI herbicidal damage (five point scale): pre-emergence, 1000 g/h, evaluated after 13 days. How it is done: as §1
The subject of assay [12] is Amaranthus retoflexus (AMARE). Put plainly: Pre-emergence herbicidal glasshouse test on Amaranthus retoflexus. The note with it: for PRE Application AMARE herbicidal damage (five point scale): pre-emergence, 1000 g/h, evaluated after 13 days. On the procedure:
as §1

Results on five compounds are retold here after patent publication US9693556B2, “Herbicidal pyridazinone derivatives” (SYNGENTA LIMITED, priority 2011, dated 2017).

In the case of `Cn1ncc(-c2ccccc2[N+](=O)[O-])c(O)c1=O` [Compound 1.111], the “PRE Application ALOMY herbicidal damage (five point scale)” value (“PRE Application ALOMY herbicidal damage” for short) in assay [1] is 1 (1=0-19% damage). Also, the “PRE Application SETFA herbicidal damage (five point scale)” value (from here on “PRE Application SETFA herbicidal damage”) in [2] is 1 (1=0-19% damage). In addition, in assay [3], the “PRE Application ECHCG herbicidal damage (five point scale)” value (from here on “PRE Application ECHCG herbicidal damage”) is 1 (1=0-19% damage). Also, the “PRE Application IPOHE herbicidal damage (five point scale)” value (from here on “PRE Application IPOHE herbicidal damage”) in assay [4] was 2 (2=20-39% damage). Also, the “POST Application ALOMY herbicidal damage (five point scale)” value (from here on “POST Application ALOMY herbicidal damage”) in [5] was 1 (1=0-19% damage). Besides, the “POST Application SETFA herbicidal damage (five point scale)” value (shortened to “POST Application SETFA herbicidal damage”) in assay [6] is recorded as 1 (1=0-19% damage). Moreover, in assay [7], the “POST Application ECHCG herbicidal damage (five point scale)” value (“POST Application ECHCG herbicidal damage” below) is on record as 1 (1=0-19% damage). Also, the “POST Application SOLNI herbicidal damage (five point scale)” value (from here on “POST Application SOLNI herbicidal damage”) in assay [8] is listed as 3 (3=40-59% damage). In [9], the “POST Application AMARE herbicidal damage (five point scale)” value (shortened to “POST Application AMARE herbicidal damage”) is 2 (2=20-39% damage). The “POST Application IPOHE herbicidal damage (five point scale)” value (“POST Application IPOHE herbicidal damage” below) in [10] was 1 (1=0-19% damage).

`COc1ccc(-c2cnn(C)c(=O)c2O)c(C(F)(F)F)c1` [Compound 1.115]: the “PRE Application ALOMY herbicidal damage” value in assay [1] is 1 (1=0-19% damage). Moreover, the “PRE Application SETFA herbicidal damage” value in assay [2] is recorded as 1 (1=0-19% damage). Further, in assay [3], the “PRE Application ECHCG herbicidal damage” value is recorded as 2 (2=20-39% damage). Besides, the “PRE Application SOLNI herbicidal damage (five point scale)” value in assay [11] is listed as 4 (4=60-79% damage). For the same compound, in assay [12], the “PRE Application AMARE herbicidal damage (five point scale)” value is 4 (4=60-79% damage). In addition, in assay [5], the “POST Application ALOMY herbicidal damage” value is 1 (1=0-19% damage). In addition, in assay [6], the “POST Application SETFA herbicidal damage” value is on record as 1 (1=0-19% damage). Also, in [7], the “POST Application ECHCG herbicidal damage” value is listed as 1 (1=0-19% damage). For the same compound, in assay [8], the “POST Application SOLNI herbicidal damage” value was 5 (5=80-100% damage). Also, the “POST Application AMARE herbicidal damage” value in [9] was 2 (2=20-39% damage). For the same compound, the “POST Application IPOHE herbicidal damage” value in [10] is given as 4 (4=60-79% damage).

For the compound `CCCn1ncc(-c2ccc(C(F)(F)F)cc2Cl)c(O)c1=O` [Compound 1.126], the “PRE Application ALOMY herbicidal damage” value in [1] is 1 (1=0-19% damage). Also, the “PRE Application SETFA herbicidal damage” value in assay [2] is listed as 1 (1=0-19% damage). The “PRE Application ECHCG herbicidal damage” value in assay [3] is on record as 1 (1=0-19% damage). For the same compound, the “PRE Application SOLNI herbicidal damage (five point scale)” value in assay [11] was 1 (1=0-19% damage). Moreover, in assay [4], the “PRE Application IPOHE herbicidal damage” value is 1 (1=0-19% damage). The “POST Application ALOMY herbicidal damage” value in assay [5] is reported as 1 (1=0-19% damage). For the same compound, the “POST Application SETFA herbicidal damage” value in assay [6] is listed as 2 (2=20-39% damage). Moreover, in assay [7], the “POST Application ECHCG herbicidal damage” value is 2 (2=20-39% damage). The “POST Application SOLNI herbicidal damage” value in assay [8] is 4 (4=60-79% damage). Also, in assay [9], the “POST Application AMARE herbicidal damage” value is recorded as 5 (5=80-100% damage). Further, the “POST Application IPOHE herbicidal damage” value in [10] is recorded as 3 (3=40-59% damage).

On to `C=Cc1ccc(-c2cnn(C)c(=O)c2O)c(S(C)(=O)=O)c1` [Compound 1.139], for which the “PRE Application ALOMY herbicidal damage” value in assay [1] is on record as 5 (5=80-100% damage). Moreover, in assay [2], the “PRE Application SETFA herbicidal damage” value is reported as 1 (1=0-19% damage). Also, in assay [3], the “PRE Application ECHCG herbicidal damage” value is recorded as 5 (5=80-100% damage). The “PRE Application AMARE herbicidal damage (five point scale)” value in assay [12] is 5 (5=80-100% damage). Further, in [4], the “PRE Application IPOHE herbicidal damage” value is given as 4 (4=60-79% damage). Further, the “POST Application ALOMY herbicidal damage” value in [5] is listed as 5 (5=80-100% damage). The “POST Application SETFA herbicidal damage” value in [6] is recorded as 5 (5=80-100% damage). The “POST Application ECHCG herbicidal damage” value in [7] is on record as 5 (5=80-100% damage). Besides, in assay [8], the “POST Application SOLNI herbicidal damage” value is 5 (5=80-100% damage). In addition, in [9], the “POST Application AMARE herbicidal damage” value is on record as 5 (5=80-100% damage). Besides, the “POST Application IPOHE herbicidal damage” value in assay [10] is recorded as 5 (5=80-100% damage).

As to `CCCCn1c(C2CC2)ncc(-c2cnn(C)c(=O)c2O)c1=O` [Compound 10.005], the “PRE Application ALOMY” value in assay [1] (pre-emergence application, Alopecurus myosuroides, damage score 1-5) is reported as 1 (1=0-19% damage). Further, the “PRE Application SETFA” value in assay [2] (pre-emergence application, Setaria faberi, damage score 1-5) is recorded as 1 (1=0-19% damage). The “PRE Application SOLNI” value in assay [11] (pre-emergence application, Solanum nigrum, damage score 1-5) is recorded as 5 (5=80-100% damage). Moreover, the “PRE Application AMARE” value in [12] (pre-emergence application, Amaranthus retoflexus, damage score 1-5) is given as 5 (5=80-100% damage). Moreover, in assay [5] (post-emergence application, Alopecurus myosuroides, damage score 1-5), the “POST Application ALOMY” value is 2 (2=20-39% damage). For the same compound, in assay [6] (post-emergence application, Setaria faberi, damage score 1-5), the “POST Application SETFA” value is on record as 5 (5=80-100% damage). In assay [7] (post-emergence application, Echinochloa crus-galli, damage score 1-5), the “POST Application ECHCG” value is on record as 5 (5=80-100% damage). Further, the “POST Application SOLNI” value in assay [8] (post-emergence application, Solanum nigrum, damage score 1-5) was 5 (5=80-100% damage). In addition, the “POST Application AMARE” value in assay [9] (post-emergence application, Amaranthus retoflexus, damage score 1-5) is reported as 5 (5=80-100% damage). Moreover, the “POST Application IPOHE” value in [10] (post-emergence application, Ipomoea hederacea, damage score 1-5) is 4 (4=60-79% damage).
